Calls of active or inactive are those of the source. No stated cut-off is given here; in the data, actives have a measured IC50 and inactives only a lower limit.

The assay deals with Envelope glycoprotein gp160 (Human immunodeficiency virus 1, UniProt Q6QLK5). The assay is described as follows: inhibitors of HIV fusion peptide binding, primary screen, biochemical, uHTS, fluorescence dequenching (AID 1986).
Envelope glycoprotein gp160, sequence (Q6QLK5 whole entry, the tested form may be a part): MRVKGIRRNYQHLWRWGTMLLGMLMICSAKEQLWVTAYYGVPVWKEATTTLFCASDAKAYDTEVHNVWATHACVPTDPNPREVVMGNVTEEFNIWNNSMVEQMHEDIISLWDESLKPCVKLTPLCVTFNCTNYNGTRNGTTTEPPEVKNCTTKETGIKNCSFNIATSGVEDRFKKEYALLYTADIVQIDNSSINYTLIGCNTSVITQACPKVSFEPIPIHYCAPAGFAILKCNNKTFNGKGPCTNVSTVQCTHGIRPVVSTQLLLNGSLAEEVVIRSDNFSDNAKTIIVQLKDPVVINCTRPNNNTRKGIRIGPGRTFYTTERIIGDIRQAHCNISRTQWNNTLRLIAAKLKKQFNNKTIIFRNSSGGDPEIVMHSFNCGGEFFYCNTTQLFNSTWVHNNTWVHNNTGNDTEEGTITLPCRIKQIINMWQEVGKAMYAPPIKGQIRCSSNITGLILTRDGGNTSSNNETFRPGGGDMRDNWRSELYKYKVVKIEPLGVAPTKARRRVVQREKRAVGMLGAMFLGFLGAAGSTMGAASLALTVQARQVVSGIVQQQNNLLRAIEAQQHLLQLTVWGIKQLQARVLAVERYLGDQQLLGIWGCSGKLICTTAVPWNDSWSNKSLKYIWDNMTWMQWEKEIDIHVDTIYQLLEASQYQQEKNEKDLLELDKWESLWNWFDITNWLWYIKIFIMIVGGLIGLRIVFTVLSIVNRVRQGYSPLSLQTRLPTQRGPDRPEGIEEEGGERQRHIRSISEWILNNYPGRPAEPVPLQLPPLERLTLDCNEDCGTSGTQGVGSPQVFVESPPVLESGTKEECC

Turning to `COc1ccc(S(=O)(=O)Nc2ccccc2C(=O)Nc2nc(-c3ccc(F)cc3)cs2)cc1OC`, the half-maximal inhibitory concentration (IC50) (in general, the concentration that inhibits the measured activity by half) was 14.8 µM (active).

For the origin of these results see ChEMBL document CHEMBL1201862, “PubChem BioAssay data set” (2004).
